# Measurements: a melting point compilation (Tetko et al.; mined from patent text by program, amines drawn as free bases though some values may be those of a salt)
row,Structure (SMILES),melting point
1,CNc1ccsc1C(=O)OC,54 to 57 °C
2,COCCNC1CCN(c2ccc(NC(=O)c3cnn(-c4ccc(Cl)cc4)c3C)cc2C#N)CC1,194 °C
3,Cc1c(CC(=O)O)c2cc(O)c(F)cc2n1C(=O)c1ccc(Cl)cc1,193 to 195 °C
4,CCCCc1nc2c(N)nc3ccc(OCc4ccc(OC(F)(F)F)cc4)cc3c2n1C,219 to 220 °C
5,CCOC(=O)C(=O)Nc1cc(Cl)c(Cl)c(Cl)c1,148 to 151 °C
6,COc1nc2ccccc2c(-c2ccccc2)c1C(=O)N(C)Cc1cc(C(F)(F)F)cc(C(F)(F)F)c1,146 to 147 °C
7,CN1C(=O)C(=Cc2cc(C(C)(C)C)c(O)c(C(C)(C)C)c2)SC1=S,> 230 °C
8,OC(Cc1ccncc1)C(Cl)(Cl)Cl (configuration not stated),166 to 168 °C
9,CC(C)CCCC(O)(Cn1cncn1)C(C)(C)C (configuration not stated),45 to 48 °C
10,COc1cc2c(c(OC)c1OC)CC(CCCCCCC1Cc3cc(OC)c(OC)c(OC)c3C1)C2 (configuration not stated),69 to 70 °C
11,CCOC(=S)c1c(CC)nc(C)nc1NCCc1ccc(OC)c(OC)c1,52 to 53 °C
12,CN(N)c1ccc(-c2ccc(Cl)cc2)nn1,170 to 172 °C
13,COc1ccc(N(Cc2ccc(N(C)C)cc2)C(=O)C2CCCc3c(O)cccc32)cc1 (configuration not stated),195 to 197 °C
14,COc1ccc(S(=O)(=O)Nc2c(/C=C/c3ccncc3)cccc2OC)cc1,205 to 206 °C
15,CCCNC(=O)c1nc(-c2ccccc2)c(-c2ccc(=O)n(Cc3ccccc3)n2)s1,120 to 121 °C
16,COc1cccc2[nH]cc(C3CN4CCC3CC4)c12 (configuration not stated),193 to 195 °C
17,CC(C)C(NS(=O)(=O)c1ccc(Cl)s1)c1ncnn1Cc1ccccc1 (configuration not stated),138 to 139 °C
18,O=C(c1nc(-c2ccccc2)nc2ccccc12)N1CCC(CCO)CC1,146 °C
19,COc1cc(OC)nc(Oc2cccc3c2C(=O)OC3C#N)n1 (configuration not stated),157 to 159 °C
20,CSc1ncc(-c2ccccc2)c(Cl)n1,99 °C
21,CCCc1cc(OC)c(OC)c(C(=O)NC[C@@H]2CCCN2CC)c1OC,68 to 70 °C
22,"CC1(C)OC(=O)C(c2ccc3sccc3c2)O1 (single isomer, unassigned; (-))",116 to 117 °C
23,CN1CCc2c(cc3ccccc3c2N)C1,97 to 99 °C
24,O=C(NCc1ccc(Cl)cc1Cl)N1CCc2[nH]cnc2C1CCC1CCCCC1 (configuration not stated),185 to 187 °C
25,CNC(=O)n1sc(SC)nc1=O,144 °C
26,O=C(N=C1SCCN1Cc1ccc(Cl)nc1)C(F)(F)F,96 °C

row,Structure (SMILES),melting point
1,COC(=O)C(C)(C)c1ccc(C(=O)Nc2cn3c4c(ccc3n2)OCC4)cc1,235 to 237 °C
2,Cc1nc(-c2cccc(Cl)c2)n(-c2ccc(S(N)(=O)=O)cc2)n1,146 to 147 °C
3,O=c1[nH]c2cc(F)ccc2c(=O)n1S(=O)(=O)c1ccc(Cl)cc1,> 200 °C
4,O=C(O)C1SC(C23CC4CC(CC(C4)C2)C3)=NN1C(=O)CCS (configuration not stated),183 to 184 °C
5,CN1CCN(NC(=O)Nc2cccc3c2C(=O)c2c-3n[nH]c2-c2ccc(N3CCN(C)CC3)cc2)CC1,293 °C
6,COc1ccc2[nH]c(=O)n3c(=O)[nH]nc3c2c1,> 350 °C
7,COc1cc(N)c(Cl)cc1C(=O)NCCN1CCC(n2c(=O)[nH]c3ccccc32)CC1,230 °C
8,CCOC(=O)[C@@H](NC(=O)c1cc(-c2ncc(C(F)(F)F)cc2Cl)ccc1Cl)C(C)C,90 to 92 °C
9,COC(=O)C1(c2ccc([N+](=O)[O-])cc2)CO1 (configuration not stated),78 to 82 °C
10,CC(C)COc1c(-c2ccc(S(N)(=O)=O)cc2)cnn(CC(F)(F)F)c1=O,170 to 172 °C
11,SC1=NCCN1Cc1ccccc1,177 to 182 °C
12,COc1ccc(CN(C(=O)C(F)(F)F)c2cc(F)cc(C#N)c2)cc1,102 to 103 °C
13,CN1C(C)(C)CC2(CC1(C)C)NC(=O)N(CC(O)COCC(O)COCC(O)CN1C(=O)NC3(CC(C)(C)N(C)C(C)(C)C3)C1=O)C2=O (configuration not stated),175 to 177 °C
14,CSC(C(=O)N1CCOCC1)c1cccc(C(=O)c2ccccc2)c1N (configuration not stated),119 to 121 °C
15,CC(C)(Oc1ccc(CCC(=O)c2ccc(-c3ccccc3)s2)c(Cl)c1Cl)C(=O)O,179 to 180 °C
16,CCOC(=O)NN=Cc1c[nH]c(Cc2ccccc2)n1,184 to 185 °C
17,CC(C)c1nn(-c2ccc(C(F)(F)F)cn2)cc1CCCCO,67 to 68 °C
18,Cc1noc(NS(=O)(=O)c2ccsc2C(=O)NS(=O)(=O)c2cccc3c(N(C)C)cccc23)c1Br,184 to 186 °C
19,CCCCCNC(=O)CC(=O)O,67.5 to 68.5 °C
20,NCCc1ccc(OCc2ccccc2)cc1,58.7 to 59.6 °C
21,COc1cccc(COc2ccc(S(=O)(=O)c3ccc(C)nc3Nc3c(C)cc(C)cc3C)cc2)c1OC,124 to 126 °C
22,C=CCc1cc(-c2cc(CC)cc(CC=C)c2O)ccc1O,47 to 48 °C
23,OC1c2ccccc2CCC12CCCCN2 (configuration not stated),125 to 127 °C
24,COc1ccnc(CCc2nc3cc(-c4ccc(N)cc4)cnc3[nH]2)c1,117 to 119 °C
25,CCOC(=O)CC(NC(=O)c1ccc(Cl)cc1)C(=O)c1ccsc1 (configuration not stated),106 to 108 °C
26,CN(C)C(=O)COc1ccc2c(c1)C[C@@H](NC[C@H](O)c1ccc(O)cc1)CC2,169 to 172 °C

row,Structure (SMILES),melting point
1,CNC(=O)c1c(-c2ccccc2)noc1CC(=O)c1ccccc1,125 to 128 °C
2,Oc1ccc(-c2nc3cc(O)cc(C(Br)CBr)c3o2)cc1 (configuration not stated),175 to 177 °C
3,Cc1cccc(P(=O)(O)c2cccc(C)c2)c1,172 °C
4,O=C(Nc1cccc([N+](=O)[O-])c1)NC1CC(C(=O)O)Nc2cc(Cl)cc(Cl)c21 (configuration not stated),209 to 210 °C
5,CCCC[C@H](NC(=O)[C@H](CC(C)C)NC(=O)c1ccc(F)c(C(F)(F)F)c1)C(=O)CSCc1ccco1,112 to 114 °C
6,O=C(Nc1ccc(CN2C(=O)[C@H]3CCC[C@H]3Nc3ccccc32)cc1)Oc1ccccc1 (relative stereo),183 to 184 °C
7,CN1C(=S)Nc2ccncc2S1(=O)=O,195 to 198 °C
8,COc1ccc(CNC(=O)c2[nH]c3ccc(Cl)cc3c2S(=O)(=O)c2ccccc2)cc1,205 to 206 °C
9,CC1CN(c2c(F)cc3c(=O)c(C(=O)O)cn4c3c2OCC4C)CC1NC(=O)OC(C)(C)C (configuration not stated),206 to 207 °C
10,CCOP(=O)(OCC)C(O)c1cccc(F)c1 (configuration not stated),81 to 82 °C
11,CCCOc1ccc(S(=O)(=O)CCC)cc1C(N)=O,168 to 170 °C
12,COCCN(CCOC)c1ccc(Nc2ncc3c(C)c(C(C)=O)c(=O)n(C4CCCC4)c3n2)nc1,138 °C
13,CC(=O)Nc1cccc2c1CC(=O)CC2,203 to 205 °C
14,CCNC1CCc2c(ccc(OC)c2OC)C1O (configuration not stated),125 to 128 °C
15,CCOC(=O)CNC(=O)COc1ccc(CCl)cc1,88.5 to 90.5 °C
16,CCOC(=O)N1CCSC1C1=C(C)NC(=O)CS1 (configuration not stated),146 to 147 °C
17,COC(=O)C1=C(O)c2ccc(F)cc2S(=O)(=O)N1C,191 °C
18,Cc1ccc(CCC(C)(C)NCC(O)c2cc3ccccc3o2)cc1 (configuration not stated),121 to 122 °C
19,O=C(O)C=CC(=O)Oc1ccc(Nc2ccccc2)cc1,139 to 142 °C
20,N#Cc1ccc2c(c1)nc(N)n2CCC(=O)O,> 320 °C
21,COc1ccc(C(=O)c2ccc(Br)s2)cc1,97 to 99 °C
22,C[Si]1(C)CCCCCCCC[Si](C)(C)O[Si](C)(C)CCCCCCCC[Si](C)(C)O1,67 to 69 °C
23,OC1(C(F)(F)F)CC(c2ccc(Cl)cc2)=NN1Cc1cccnc1 (configuration not stated),158 to 160 °C
24,NCc1ccc2c(c1)ncn2-c1cccc(-c2ccc(F)nc2)c1,141 to 143 °C
25,FC(F)(F)c1ccc(-c2cc(Oc3ccc4cccnc4c3)ncn2)c(NCC2CCCCC2)c1,137 to 138 °C
26,FC(F)(F)c1ccc(N2CCNCC2)nc1,45 to 47 °C

row,Structure (SMILES),melting point
1,O=C(NCc1cn(-c2ccc(N3CCOCC3)c(F)c2)nn1)C(Cl)Cl,190 °C
2,ON=C1CCC(c2ccccc2)CC1c1ccccc1 (configuration not stated),214 to 215 °C
3,CC(=O)Nc1ccc(C(=O)c2cc(-c3ccc(NC(C)=O)cc3)c(N3CCOCC3)s2)cc1,152 °C
4,O=[N+]([O-])c1nccn1CC(O)CC1C2CCCN21 (configuration not stated),81 to 81.5 °C
5,C[C@H](NP(=O)(Cc1ccccc1)Cc1ccccc1)C(=O)N1CCC[C@H]1C(=O)N[C@H](C)C(=O)OCc1ccccc1,82 to 85 °C
6,COc1cccc(OC)c1C(=O)NC(=S)NNC(=O)c1ccc(Cl)cc1,206 to 208 °C
7,Cc1nnc(-c2cccc(I)c2)o1,104 to 105 °C
8,CC(=O)NCCNc1nc(-c2ccccc2)nc2[nH]c(C(=O)N3CCOCC3)cc12,250 °C
9,COC1NC(=O)CC2CC1c1ccccc12 (configuration not stated),205 to 207 °C
10,CCOC(=O)CC1CCc2cncn2C1c1ccc(C#N)cc1 (configuration not stated),126 to 127 °C
11,O=C(O)CCNC(=O)c1ccccc1NC(=O)c1ccccc1O,200 to 202 °C
12,COC1=C(OC)C(=O)C(CCCCCCCCCCCCCO)=C(C)C1=O,65 to 66 °C
13,CCc1cn(-c2nc(C)nc(NC)n2)c2ccccc12,174 to 175 °C
14,COc1ccc(-c2nn(Cc3ccc(F)cc3)c(=O)cc2-c2ccncc2)cc1,154 to 155 °C
15,O=C(Cc1c2c(nn1-c1ccccc1)c(Cl)nc1ccccc12)N1CCN(Cc2ccccc2)CC1,210 to 212 °C
16,CC(=CN1CCC(CCCC2CCN(C=C(C)c3ccccc3)CC2)CC1)c1ccccc1,120 °C
17,Cc1ccc(C(=O)Nc2ccc(N3CCNCC3)cc2)c(-c2ccc(C(C)C)cc2)c1,131 to 133 °C
18,CCSc1ccc(-c2ncco2)c2c1C(=O)CC(C)C2 (configuration not stated),111 to 113 °C
19,CC(C)(C)c1cc(C(C)(C)C)c(N)cc1N,153 to 154 °C
20,COc1ccc(CC(C)NCC(O)c2ccccc2OC)cc1OC (configuration not stated),125 to 126 °C
21,Cc1cn(C(C(=O)N(C)C)C(C)C)nc1-c1ccccc1 (configuration not stated),66.5 to 68.5 °C
22,O=C(O)c1ccc(C(=O)Nc2cc3c4c(c2)CCCC4CCC3)cc1,283 to 284 °C
23,CCCCCCC(C)(C)c1cc(OC)c(C2=C[C@@H]3CC[C@@]2(CO)C3(C)C)c(OC)c1,49 to 51 °C
24,COc1cc(N)c([N+](=O)[O-])cc1C(F)(F)F,56 °C
